Results published in ChEMBL document CHEMBL5375999, “Discovery of a Dual Tubulin and Neuropilin-1 (NRP1) Inhibitor with Potent In Vivo Anti-Tumor Activity via Pharmacophore-based Docking Screening, Structure Optimization, and Biological Evaluation” (J Med Chem, 2023).
Calls of active or inactive are those of the source. No cut-off for these calls is given here.

Key:
PC-3 [1] = test: Induction of apoptosis in human PC-3 cells assessed as necrotic cells at 0.5 uM by Annexin-V FITC staining based flow cytometry analysis (reference value: 0.059%); type: functional
[2] = molecular target: Serine/threonine-protein kinase B-raf (Homo sapiens, UniProt P15056); test: Inhibition of BRAF (unknown origin)
[3] = molecular target: Vascular endothelial growth factor receptor 1 (Homo sapiens, UniProt P17948); test: Inhibition of VEGFR1 (unknown origin)
PC-3 [4] = test: Induction of apoptosis in human PC-3 cells assessed as early apoptotic cells at 0.5 uM by Annexin-V FITC staining based flow cytometry analysis (reference value: 1.51%); type: functional
[5] = molecular target: Mitogen-activated protein kinase 8 (Homo sapiens, UniProt P45983); test: Inhibition of JNK1 (unknown origin)
Tubulin (Homo sapiens) [6] = molecular target: T1, Tubulin (Homo sapiens) (UniProt P68371+Q9H4B7+P0DPH7+P68366+Q13509+Q71U36+P04350+Q3ZCM7+P07437+P68363+Q9BQE3+Q6PEY2+Q13885+Q9BVA1+Q9BUF5); test: Inhibition of tubulin polymerization in human PC-3 cells assessed as increase in microtubule dispersion incubated for 48 hrs by immunofluorescence assay; type: cell-based; settings: dose 0.1-12.5 µM
PC-3 [7] = test: Induction of apoptosis in human PC-3 cells assessed as early apoptotic cells at 12.5 uM by Annexin-V FITC staining based flow cytometry analysis (reference value: 1.51%); type: functional
PC-3 [8] = test: Induction of apoptosis in human PC-3 cells assessed as viable cells at 2.5 uM by Annexin-V FITC staining based flow cytometry analysis (reference value: 96.8%); type: functional; settings: read-out: Activity
PC-3 [9] = test: Induction of apoptosis in human PC-3 cells assessed as necrotic cells at 12.5 uM by Annexin-V FITC staining based flow cytometry analysis (reference value: 0.059%); type: functional
[10] = molecular target: Proto-oncogene tyrosine-protein kinase ROS (Homo sapiens, UniProt P08922); test: Inhibition of ROS1 (unknown origin)
PC-3 [11] = test: Induction of cell cycle arrest in human PC-3 cells assessed as S phase cells at 12.5 uM by flow cytometry analysis (reference value: 2%); type: functional
[12] = Cytotoxicity against human PrEC cells assessed as inhibition of cell viability incubated for 48 hrs by MTT assay; type: toxicity, cell-based
PC-3 [13] = test: Antitumor activity against human PC-3 cells xenografted in BALB/c nude mouse assessed as reduction in tumor weight at 5 to 10 mg/kg, ip administered every 4 days for 20 days; type: functional, organism-based; settings: dose 5-10 mg/kg, time 20.0 day
PC-3 [14] = test: Induction of apoptosis in human PC-3 cells assessed as late apoptotic cells at 2.5 uM by Annexin-V FITC staining based flow cytometry analysis (reference value: 1.67%); type: functional
PC-3 [15] = test: Induction of apoptosis in human PC-3 cells assessed as increase in cleaved PARP expression at 0.5 to 12.5 uM incubated for 48 hrs by Western blotting analysis; type: functional, cell-based; settings: dose 0.5-12.5 µM
[16] = molecular target: Tyrosine-protein kinase Blk (Homo sapiens, UniProt P51451); test: Inhibition of BLK (unknown origin)
[17] = molecular target: Dual specificity protein kinase TTK (Homo sapiens, UniProt P33981); test: Inhibition of TTK (unknown origin)
PC-3 [18] = test: Induction of apoptosis in human PC-3 cells assessed as viable cells at 0.1 uM by Annexin-V FITC staining based flow cytometry analysis (reference value: 96.8%); type: functional; settings: read-out: Activity
PC-3 [19] = test: Antiproliferative activity against human PC-3 cells assessed as inhibition of cell growth at 0.1 to 12.5 uM incubated for 48 hrs by EdU incorporation based assay; type: functional; settings: dose 0.1-12.5 µM
[20] = molecular target: RAF proto-oncogene serine/threonine-protein kinase (Homo sapiens, UniProt P04049); test: Inhibition of RAF1 (unknown origin)
HUVEC [21] = test: Antimigratory activity against HUVECs at 0.1 to 12.5 uM incubated for 24 to 48 hrs by wound healing assay; type: functional, cell-based; settings: Homo sapiens, dose 0.1-12.5 µM, time 24-48 hrs
[22] = molecular target: Mitogen-activated protein kinase 3 (Homo sapiens, UniProt P27361); test: Inhibition of ERK1 (unknown origin)
[23] = molecular target: Cyclin-dependent kinase 4 (Homo sapiens, UniProt P11802); test: Inhibition of CDK4 (unknown origin)
PC-3 [24] = test: Induction of cell cycle arrest in human PC-3 cells assessed as G0/G1 phase cells at 2.5 uM by flow cytometry analysis (reference value: 94.76%); type: functional
[25] = molecular target: Cyclin-dependent kinase 2 (Homo sapiens, UniProt P24941); test: Inhibition of CDK2 (unknown origin)
[26] = molecular target: Cyclin-dependent kinase 7 (Homo sapiens, UniProt P50613); test: Inhibition of CDK7 (unknown origin)
PC-3M-1E8 = test: Cytotoxicity against human PC-3M-1E8 cells assessed as inhibition of cell viability incubated for 48 hrs by MTT assay; type: functional, cell-based
[27] = molecular target: Cyclin-dependent kinase 5 (Homo sapiens, UniProt Q00535); test: Inhibition of CDK5 (unknown origin)
Tubulin (Homo sapiens) [28] = molecular target: T1, Tubulin (Homo sapiens); test: Inhibition of tubulin polymerization in human PC-3 cells assessed as increase in nuclear disruption incubated for 48 hrs by immunofluorescence assay; type: cell-based; settings: dose 0.1-12.5 µM
HUVEC [29] = test: Antiinvasive activity against HUVECs at 0.1 to 12.5 uM incubated for 24 hrs by crystal violet staining based optical microscopic analysis; type: functional, cell-based; settings: Homo sapiens, dose 0.1-12.5 µM
[30] = Toxicity in BALB/c mouse xenografted with human PC-3 cells assessed as change in spleen morphology at 5 to 10 mg/kg, ip administered every 4 days for 20 days by H and E staining based inverted microscopic assay; type: organism-based; settings: in vivo, 480 h, dose 5-10 mg/kg, time 20 day
PC-3 [31] = test: Induction of apoptosis in human PC-3 cells assessed as increase in cleaved caspase-3 expression at 0.5 to 12.5 uM incubated for 48 hrs by Western blotting analysis; type: functional, cell-based; settings: dose 0.5-12.5 µM
PC-3 [32] = test: Antitumor activity against human PC-3 cells xenografted in BALB/c nude mouse assessed as reduction in tumor volume at 5 to 10 mg/kg, ip administered every 4 days for 20 days; type: functional, organism-based; settings: dose 5-10 mg/kg, time 20.0 day
PC-3 [33] = test: Induction of cell cycle arrest in human PC-3 cells assessed as S phase cells at 0.5 uM by flow cytometry analysis (reference value: 2%); type: functional
PC-3M = test: Cytotoxicity against human PC-3M cells assessed as inhibition of cell viability incubated for 48 hrs by MTT assay; type: functional, cell-based
Tubulin = test: Inhibition of tubulin polymerization (unknown origin) by spectrophotometric analysis; type: protein-complex assay, Homo sapiens
PC-3 [34] = test: Induction of cell cycle arrest in human PC-3 cells assessed as G0/G1 phase cells at 0.5 uM by flow cytometry analysis (reference value: 94.76%); type: functional
CDK6/cyclin D3 = CDK6/cyclin D3 (Homo sapiens, UniProt Q00534); test: Inhibition of CDK6/Cyclin D3 (unknown origin); type: protein-complex assay
PC-3 [35] = test: Induction of cell cycle arrest in human PC-3 cells assessed as accumulation of cells at G2/M phase at 2.5 uM by flow cytometry analysis (reference value: 3.24%); type: functional
[36] = molecular target: Serine/threonine-protein kinase ICK (Homo sapiens, UniProt Q9UPZ9); test: Inhibition of ICK (unknown origin)
Serine/threonine-protein kinase ICK, sequence (Q9UPZ9 whole entry): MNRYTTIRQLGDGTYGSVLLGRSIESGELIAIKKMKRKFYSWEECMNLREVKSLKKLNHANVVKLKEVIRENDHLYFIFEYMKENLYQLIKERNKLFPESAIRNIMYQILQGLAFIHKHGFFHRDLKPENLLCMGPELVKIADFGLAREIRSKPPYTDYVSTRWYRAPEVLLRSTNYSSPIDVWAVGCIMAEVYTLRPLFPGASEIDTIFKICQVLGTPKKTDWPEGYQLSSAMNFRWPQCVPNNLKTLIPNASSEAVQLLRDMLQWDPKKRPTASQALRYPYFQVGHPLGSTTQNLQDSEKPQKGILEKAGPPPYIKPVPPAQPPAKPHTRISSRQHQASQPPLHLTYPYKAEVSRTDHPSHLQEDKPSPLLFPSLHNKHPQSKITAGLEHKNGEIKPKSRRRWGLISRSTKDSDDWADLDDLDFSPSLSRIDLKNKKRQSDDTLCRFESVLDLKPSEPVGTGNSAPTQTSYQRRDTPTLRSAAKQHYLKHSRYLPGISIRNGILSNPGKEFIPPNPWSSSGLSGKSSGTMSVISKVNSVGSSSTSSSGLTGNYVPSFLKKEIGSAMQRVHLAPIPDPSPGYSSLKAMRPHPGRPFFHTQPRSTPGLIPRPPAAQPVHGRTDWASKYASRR

Mitogen-activated protein kinase 3, sequence (P27361 whole entry): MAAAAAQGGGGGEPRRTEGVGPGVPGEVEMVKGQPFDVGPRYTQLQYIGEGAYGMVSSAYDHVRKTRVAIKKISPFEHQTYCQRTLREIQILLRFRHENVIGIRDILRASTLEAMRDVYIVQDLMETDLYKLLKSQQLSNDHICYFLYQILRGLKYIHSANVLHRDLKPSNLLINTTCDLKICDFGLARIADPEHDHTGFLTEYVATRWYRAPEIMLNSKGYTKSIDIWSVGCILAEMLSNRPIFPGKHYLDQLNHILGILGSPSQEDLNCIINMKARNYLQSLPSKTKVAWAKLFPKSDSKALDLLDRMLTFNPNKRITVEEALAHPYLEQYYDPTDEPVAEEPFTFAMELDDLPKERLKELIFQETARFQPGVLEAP
Mitogen-activated protein kinase 8, sequence (P45983 whole entry): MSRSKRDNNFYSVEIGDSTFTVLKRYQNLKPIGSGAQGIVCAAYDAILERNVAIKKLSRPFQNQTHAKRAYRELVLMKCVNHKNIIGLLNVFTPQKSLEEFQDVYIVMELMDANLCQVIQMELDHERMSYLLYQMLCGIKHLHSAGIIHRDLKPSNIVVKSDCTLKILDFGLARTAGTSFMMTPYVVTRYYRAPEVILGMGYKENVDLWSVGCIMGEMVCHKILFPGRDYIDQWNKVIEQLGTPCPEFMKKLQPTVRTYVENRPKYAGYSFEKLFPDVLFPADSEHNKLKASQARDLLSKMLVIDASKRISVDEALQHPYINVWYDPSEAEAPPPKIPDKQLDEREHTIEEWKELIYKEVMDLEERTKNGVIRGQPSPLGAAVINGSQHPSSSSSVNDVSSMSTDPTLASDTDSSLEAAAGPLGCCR
Serine/threonine-protein kinase B-raf, sequence (P15056 whole entry): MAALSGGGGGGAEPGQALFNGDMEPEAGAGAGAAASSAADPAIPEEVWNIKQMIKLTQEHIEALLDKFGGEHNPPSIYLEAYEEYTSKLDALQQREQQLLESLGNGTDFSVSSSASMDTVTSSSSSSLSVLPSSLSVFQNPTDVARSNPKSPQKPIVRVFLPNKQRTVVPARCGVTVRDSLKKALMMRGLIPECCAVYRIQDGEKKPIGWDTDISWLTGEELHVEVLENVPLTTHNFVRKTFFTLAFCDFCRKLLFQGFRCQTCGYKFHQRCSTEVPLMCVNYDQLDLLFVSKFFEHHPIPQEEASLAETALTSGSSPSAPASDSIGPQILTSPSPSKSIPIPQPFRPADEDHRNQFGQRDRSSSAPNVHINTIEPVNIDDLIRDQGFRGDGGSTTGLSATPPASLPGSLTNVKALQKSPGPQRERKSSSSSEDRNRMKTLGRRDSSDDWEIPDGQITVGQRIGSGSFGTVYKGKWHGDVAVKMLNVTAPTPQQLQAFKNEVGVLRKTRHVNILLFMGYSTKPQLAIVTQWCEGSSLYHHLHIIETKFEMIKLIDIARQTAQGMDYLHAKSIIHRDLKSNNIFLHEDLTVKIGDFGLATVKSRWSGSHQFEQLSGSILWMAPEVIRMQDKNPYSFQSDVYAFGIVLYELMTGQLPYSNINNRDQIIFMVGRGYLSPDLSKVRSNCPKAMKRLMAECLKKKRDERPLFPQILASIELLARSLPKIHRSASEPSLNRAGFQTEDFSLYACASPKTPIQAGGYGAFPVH
Cyclin-dependent kinase 7, sequence (P50613 whole entry): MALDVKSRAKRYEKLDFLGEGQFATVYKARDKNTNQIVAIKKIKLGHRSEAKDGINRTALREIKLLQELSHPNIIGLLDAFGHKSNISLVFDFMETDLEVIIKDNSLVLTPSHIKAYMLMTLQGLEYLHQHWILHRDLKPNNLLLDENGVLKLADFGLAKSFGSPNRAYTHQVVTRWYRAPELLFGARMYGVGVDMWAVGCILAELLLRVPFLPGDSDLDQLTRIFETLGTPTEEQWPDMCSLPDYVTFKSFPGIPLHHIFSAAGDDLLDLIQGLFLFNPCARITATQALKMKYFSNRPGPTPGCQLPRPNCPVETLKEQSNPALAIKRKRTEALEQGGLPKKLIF
Cyclin-dependent kinase 4, sequence (P11802 whole entry): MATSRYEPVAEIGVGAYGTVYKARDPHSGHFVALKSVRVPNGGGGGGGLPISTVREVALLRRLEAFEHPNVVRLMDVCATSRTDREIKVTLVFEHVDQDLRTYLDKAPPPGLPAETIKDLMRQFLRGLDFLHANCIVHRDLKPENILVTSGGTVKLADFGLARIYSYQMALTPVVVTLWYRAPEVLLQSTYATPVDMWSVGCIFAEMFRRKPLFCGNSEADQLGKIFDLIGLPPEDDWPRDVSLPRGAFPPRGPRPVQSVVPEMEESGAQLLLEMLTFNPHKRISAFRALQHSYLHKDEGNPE
Tyrosine-protein kinase Blk, sequence (P51451 whole entry): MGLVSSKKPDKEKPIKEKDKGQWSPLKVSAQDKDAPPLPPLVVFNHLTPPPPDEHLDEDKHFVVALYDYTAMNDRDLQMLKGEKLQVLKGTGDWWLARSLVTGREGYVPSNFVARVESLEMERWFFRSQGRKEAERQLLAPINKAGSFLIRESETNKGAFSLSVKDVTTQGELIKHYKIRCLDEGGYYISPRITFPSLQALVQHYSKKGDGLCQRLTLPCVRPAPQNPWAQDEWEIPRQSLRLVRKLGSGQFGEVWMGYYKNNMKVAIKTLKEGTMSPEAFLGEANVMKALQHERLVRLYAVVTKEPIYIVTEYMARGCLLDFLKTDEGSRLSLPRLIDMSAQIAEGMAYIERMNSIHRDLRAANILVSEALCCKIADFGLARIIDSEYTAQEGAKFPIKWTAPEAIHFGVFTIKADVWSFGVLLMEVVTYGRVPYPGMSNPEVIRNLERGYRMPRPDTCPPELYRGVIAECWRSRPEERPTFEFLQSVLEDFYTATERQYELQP
CDK6/cyclin D3, sequence (P30281 whole entry): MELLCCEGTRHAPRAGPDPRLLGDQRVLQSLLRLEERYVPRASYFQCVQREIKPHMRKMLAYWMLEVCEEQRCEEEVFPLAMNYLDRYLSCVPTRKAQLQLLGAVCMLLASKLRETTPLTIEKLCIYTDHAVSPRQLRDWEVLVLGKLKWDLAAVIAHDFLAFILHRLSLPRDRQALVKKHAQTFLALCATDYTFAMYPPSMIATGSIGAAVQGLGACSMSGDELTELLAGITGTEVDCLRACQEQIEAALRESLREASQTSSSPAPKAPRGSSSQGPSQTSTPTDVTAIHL
CDK6/cyclin D3, sequence (Q00534 whole entry): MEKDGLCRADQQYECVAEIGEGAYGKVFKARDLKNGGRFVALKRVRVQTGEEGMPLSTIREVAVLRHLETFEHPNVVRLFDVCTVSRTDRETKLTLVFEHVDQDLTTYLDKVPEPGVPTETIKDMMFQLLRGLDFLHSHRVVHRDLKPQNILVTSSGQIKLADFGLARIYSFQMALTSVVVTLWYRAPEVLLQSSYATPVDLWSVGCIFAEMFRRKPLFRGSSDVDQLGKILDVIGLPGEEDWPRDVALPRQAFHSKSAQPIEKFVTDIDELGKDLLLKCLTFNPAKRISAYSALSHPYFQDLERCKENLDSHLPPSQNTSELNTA
Dual specificity protein kinase TTK, sequence (P33981 whole entry): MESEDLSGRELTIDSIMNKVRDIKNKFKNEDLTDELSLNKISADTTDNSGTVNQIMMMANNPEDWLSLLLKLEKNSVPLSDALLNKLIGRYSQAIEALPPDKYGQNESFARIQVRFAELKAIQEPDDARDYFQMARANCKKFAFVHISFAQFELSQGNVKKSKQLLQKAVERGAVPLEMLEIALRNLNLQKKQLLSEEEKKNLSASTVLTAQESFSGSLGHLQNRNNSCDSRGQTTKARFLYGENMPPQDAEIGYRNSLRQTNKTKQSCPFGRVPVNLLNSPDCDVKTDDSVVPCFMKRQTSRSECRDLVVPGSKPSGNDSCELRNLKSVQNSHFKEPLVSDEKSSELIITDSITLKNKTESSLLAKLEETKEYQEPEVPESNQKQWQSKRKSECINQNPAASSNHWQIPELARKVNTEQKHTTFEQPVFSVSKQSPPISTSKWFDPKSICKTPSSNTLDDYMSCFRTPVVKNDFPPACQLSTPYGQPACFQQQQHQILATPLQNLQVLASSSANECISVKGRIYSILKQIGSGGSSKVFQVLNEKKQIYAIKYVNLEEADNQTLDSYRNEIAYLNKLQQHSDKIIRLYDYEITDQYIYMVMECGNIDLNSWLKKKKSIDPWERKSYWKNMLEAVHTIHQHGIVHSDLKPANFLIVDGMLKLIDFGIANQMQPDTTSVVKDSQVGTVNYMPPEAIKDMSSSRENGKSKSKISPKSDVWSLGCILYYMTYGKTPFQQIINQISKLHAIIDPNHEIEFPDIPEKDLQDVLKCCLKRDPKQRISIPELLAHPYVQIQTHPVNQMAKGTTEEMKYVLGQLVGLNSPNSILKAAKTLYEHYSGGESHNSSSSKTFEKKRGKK

IC50 [2]: > 10 µM
IC50 [3]: > 10 µM
IC50 [5]: > 10 µM
inhibition (Tubulin (Homo sapiens) [6]): Dose-Dependent Effect
IC50 [10]: > 10 µM
IC50 [16]: > 10 µM
IC50 [17]: > 10 µM
IC50 [20]: > 10 µM
IC50 [22]: > 10 µM
IC50 [23]: > 10 µM
IC50 [25]: > 10 µM
IC50 [26]: > 10 µM
IC50 [27]: > 10 µM
inhibition (Tubulin (Homo sapiens) [28]): Dose-Dependent Effect
IC50 (Tubulin): 0.71 µM
IC50 (CDK6/cyclin D3): > 10 µM
IC50 [36]: > 10 µM
SMILES: COc1ccc(/C=C\c2cc(OC)c(OC)c(OC)c2)cc1NC(=O)CCC(=O)N[C@@H](CCCNC(=N)N)C(=O)O
Activity (PC-3 [1]): 0.12%
Activity (PC-3 [4]): 2.95%
Activity (PC-3 [7]): 4.55%
viability at 2.5 µM (PC-3 [8]): 89.3%
Activity (PC-3 [9]): 0.083%
Activity (PC-3 [11]): 34.85%
IC50 at 48 h [12]: > 10 µM
Activity (PC-3 [13]): Active
Activity (PC-3 [14]): 5.6%
Activity (PC-3 [15]): Active
viability at 0.1 µM (PC-3 [18]): 93.6%
Activity (PC-3 [19]): Active
Activity (HUVEC [21]): Active
Activity (PC-3 [24]): 84.75%
Activity (PC-3M-1E8): Active
Activity (HUVEC [29]): Active
Activity [30]: Non-Toxic
Activity (PC-3 [31]): Active
Activity (PC-3 [32]): Active
Activity (PC-3 [33]): 6.01%
Activity (PC-3M): Active
Activity (PC-3 [34]): 85.03%
Activity (PC-3 [35]): 11.58%
